Data: patent US20180028516A1, “METHODS AND DEVICES FOR THE TREATMENT OF OCULAR DISEASES IN HUMAN SUBJECTS” (CLEARSIDE BIOMEDICAL, INC., priority 2012, published 2018)
Entries after “also recorded” stand apart in the source; their conditions may differ.

Columns and labels:
[1] = Intraocular pressure after SCS TA (Example 9); format: in vivo, New Zealand White rabbit; conditions: 3.2 or 5.2 mg TA SCS
Protocol: In this study, the ocular tolerability and toxicokinetics of suprachoroidal administration of triamcinolone acetonide (TA) using a microneedle in a GLP study in the New Zealand White rabbit.
On Day 0, New Zealand White (NZW) rabbits were administered a single bilateral supraehoroidal injection of vehicle, 3.2 mg (80 μL) or 5.2 mg (130 μL) of TA (Triesence®, Alcoa labs) using a 33 g 750 μm microneedle. Clinical observations, slit lamp biomicroscopy with McDonald-Shadduck scoring, intraocular pressure assessment (IOP), electroretinography (ERG), and systemic exposure were assessed up to 26 weeks post-dose. Animals were sacrificed on Day 1, Week 13, and Week 26 for macroscopic observations, ocular toxicokinetics, and ocular histopathology.

[2] = system: subretinal endotoxin-induced model of posterior segment uveitis; experiment: Subretinal endotoxin-induced model of posterior segment uveitis, pretreatment with SCS or IVT TA (Example 11); format: in vivo, New Zealand White rabbits
Protocol: In this study, the effects of pretreatment with suprachoroidal or intravitreal triamcinolone acetonide (TA) in a subretinal endotoxin-induced model of posterior segment uveitis in New Zealand White rabbits was evaluated.
On Day 1, female rabbits (4 eyes/group) received a single unilateral injection of vehicle or 4 mg TA (Triesence®, 40 mg/mL suspension, Alcon Labs) into the suprachoroidal space (SCS) using a 33 g 750 μm microneedle, or a 4 mg TA IVT injection using a standard 30 g needle. On Day 6, each animal received a single unilateral subretinal injection of lipopolysaccharide (LPS, 20-30 μL, 203 μg/g of 1% sodium hylauronate) to induce ocular inflammation in the treated eye. Animals were monitored for 22 days following dose administration. Endpoints included body weights, ocular observations, slit lamp biomicroscopy with McDonald-Shadduck scoring and photography, indirect ophthalmoscopy, fundus photography, intraocular pressure (IOP), and histopathology. A summary of the study design is shown below, in Table 6.

[3] = system: model of acute posterior uveitis; experiment: Porcine model of acute posterior uveitis, Hackett/McDonald scoring (Example 12); format: in vivo, pigs
Protocol: In this study, the effects of microneedle injection of triamcinolone acetonide (TA) into the suprachoroidal space (SCS) were compared to the effects of intravitreal (IVT) TA injection in a model of acute posterior uveitis.
Ten weanling pigs had IVT injection with BSS or lipopolysaccharide (LPS) followed 24 hours later with an injection of 0.2 mg or 2.0 mg of TA into the SCS or by IVT. The SCS was accessed using hollow microneedles provided herein. A measurement of each eye under the Hackett/McDonald scoring system was performed on −1, 0, and 3 days after treatment. Pigs were then euthanized, aqueous and vitreous humor collected for cell counts and protein levels, and the eyes were processed for histopathology.

[4] = Electroretinography in porcine uveitis study (Example 13); format: in vivo, domestic weanling pigs; conditions: after SCS or IVT injections of 0.2 or 2.0 mg TA
Protocol: With the pigs anesthetized on Days −1, 0 and 3, and pupils dilated with 1% tropicamide HCl. and corneas anesthetized with 0.5% proparacaine HCl, whole field ERGs were recorded from the left eve prior to injections. All animals were dark adapted for 15 minutes prior to ERG. A monopolar contact lens electrode (ERG-jet, La Chaux des Fonds, Switzerland) was placed on the cornea to serve as an active electrode. A subdermal electrode at the lateral canthus served as the indifferent electrode. A Barraquer eyelid speculum was placed to maintain open eyelids and a subdermal needle electrode was inserted dorsally as the ground electrode. EKGs were elicited by brief flashes at 0.33 Hz delivered with a mini-ganzfehl photostimulator (Roland Instruments, Wiesbaden, Germany) at maximal intensity. Twenty responses were amplified, filtered, and averaged (Retiport Electrophysiologic Diagnostic Systems, Rolland Instruments, Wiesbaden, Germany). B wave amplitudes were recorded from each pig at the designated times.

[5] = system: LPS-induced acute posterior uveitis; experiment: Wide-field ocular fundus digital photography in porcine uveitis study (Example 13); format: in vivo, domestic weanling pigs; conditions: 3 days after treatment
Description: On study days −1, 0 and 3, with the animals anesthetized arid pupils dilated with tropicamide 1%, the ocular fundus was photographed using standardized illumination and focus by a wide-field digital imaging system (Retcam II, Clarity Medical Systems, Pleasanton, Calif.).

[6] = Optical coherence tomography, retinal thickness (Example 13); format: in vivo, domestic weanling pigs; conditions: all groups, prior to or following the injections
Description: Following wide-field ocular tlindus photography on Days −1, 0, and 3, the central retina was imaged with spectral-domain optical coherence tomography (SD-OCT) (Bioptigen SDOCT EnVisu Ophthalmic Imaging System, Durham, N.C.) using 6 imaging protocols (including rectangular volume scans of 6, 8, and 12 mm, and doppler rectangular volume).

[7] = design: species or system New Zealand White rabbit; conditions: rabbit, in vivo
Protocol: In this study, the ocular tolerability and toxicokinetics of suprachoroidal administration of Ting triamcinolone acetonide (TA) using microneedle was determined, in the New Zealand White rabbit as an animal model.
On Day 0, New Zealand White (NZW) rabbits (4/sex/group/terminal time point, 48 total) were administered a single bilateral suprachoroidal injection of 100 μL of 4 ma TA (40 mg/mL) or vehicle, using a 33 g 750 μm microneedle. Clinical Observations, body weights, food consumption, slit lamp biomicroscopy with McDonald-Shadduck scoring, indirect ophthalmoscopy, intraocular pressure assessment (IOP), central corneal thickness (CCT), electroretinography (ERG), serum chemistry and hematology, and systemic exposure were assessed up to 13 weeks post-dose. Animals were sacrificed on Day 1 or Week 13 and were evaluated for macroscopic observations at necropsy and ocular histopathology. Four animals/sex were given an additional suprachoroidal administration on Day 90, and will be followed for an additional 13 weeks.

[8] = system: LPS-induced acute posterior uveitis; experiment: Ocular inflammatory scores in LPS-induced porcine uveitis (Example 13); conditions: for mean cumulative inflammatory scores compared with Group 1 (BSS IVT/vehicle SCS): Days 1, 2, and 3
Protocol: A totalof 20 domestic wearrling pigs (Sus sergfir domesticus), male or female, (12-20 kg) were used in this study. Only the left eye was tested in this study; the right eye was not injected, examined, or treated. All injections were performed with the pigs anesthetized (intramuscular Telazol-Ketamine-Xylazine and isoflorane in oxygen via mask) and the eve prepared aseptically (sterile 5% betadine solution followed by irrigation with sterile eyewash).
Twenty-four hours prior to SCS or IVT injection of TA or vehicle (Day-1), 100 ng of lipopolysaccharide (ITS; E. coli 055:B55; Sigma, Inc. St. Louis, Mo.) in 100 μL BSS (Balanced Salt Solution, Alcon Laboratories, Inc., Forth Worth, Tex.), was injected using a 27 gauge needle into the posterior central vitreous.
Twenty-four hours after the LPS injection (Day 0), 0.2 mg or 2.0 mg of commercially-available TA (Triesence®; Alcon Laboratories, Inc, Forth Worth, Tex.) or vehicle was injected either intravitreally (27 gauge needle) or into the SCS (33 gauge, 850 μm microneedle) in eyes prepared aseptically (Table 7). The dose of TA was selected to represent a typical therapeutic dose (e.g., 2.0 mg) and a dose 10 times less to compare therapeutic effect.
All injections were made superiorly, approximately 5-6 mm posterior to the limbus. […] TA was diluted using vehicle to provide a low dose (0.2 mg/100 μL) or high dose (2.0 mg/100 μL). The vehicle (100 uL) was also used in the control groups, but without TA.
A Hackett-McDonald microscopic ocular inflammatory scoring system, modified for use in pigs (instead of New Zealand White rabbits) as described below, was used to evaluate the ocular anterior segment and anterior vitreous. Scores of the conjunctiva (congestion, swelling, discharge, 0-4); aqueous flare (0-3); pupillary light reflex (0-2); iris involvement (0-4); cornea (involvement and area, 0-4); pannus (vascularization, 0-2); and anterior vitreal cellular infiltrate (0-4) were summed to provide a single inflammatory score for each animal for each examination. Using a portable slit lamp biomicroscope (Zeiss HSO-10, Carl Zeiss Meditec, Inc. USA), ocular inflammatory scores were evaluated at Day -1 (prior to LPS injection), at Day 0 (prior to vehicle or TA injection), then at 1, 2 and 3 days after injection,
For histologic grading, two independent observers masked to the treatment group evaluated each eye at each time point and the average resulting scores for each animal were used for analysis, Parametric normally distributed data (i.e., IOP, ERG, retinal thickness, cell counts, protein concentration) were compared by time point for each group using 1-way ANOVA models with Tukey-Kramer post-hoc analysis. For non-parametric data (i.e., clinical scores, histologic grades), Wilcoxon tests were conducted per animal by time point. Differences were considered significant at P<0.05. Results and probAilities were calculated using computerized statistical software (JMP 10, SAS Inc. Cary, N.C.).

With `CC1(C)O[C@@H]2C[C@H]3[C@@H]4CCC5=CC(=O)C=C[C@]5(C)[C@@]4(F)[C@@H](O)C[C@]3(C)[C@]2(C(=O)CO)O1` [TA, triamcinolone acetonide] the “effect on IOP” value [1] was “No effect”, the “Iris vessel dilation and tortuosity compared with the SCS vehicle group” value ([2]; 4 mg TA IVT) was “reduced to a lesser extent” and the “Vitritis, aqueous flare, and cellularity compared to SCS vehicle eyes” value ([2]; 4 mg TA IVT) was “substantially less severe”. The “inflammation as assessed histopathologically compared with the vehicle group” value ([2]; 4 mg TA IVT) was “marked reduction”, the “Iris vessel dilation and tortuosity compared with the SCS vehicle group” value ([2]; 4 mg TA SCS) was “reduced” and the “Vitritis, aqueous flare, and cellularity compared to SCS vehicle eyes” value ([2]; 4 mg TA SCS) was “substantially less severe”. The “inflammation as assessed histopathologically compared with the vehicle group” value ([2]; 4 mg TA SCS) was “marked reduction”, the “effectiveness in reducing the inflammatory response, SCS vs IVT” value ([2]; 4 mg TA SCS by hollow microneedle) was “as effective as 4 mg IVT TA” and the “overall inflammatory response / inflammatory endpoints compared to vehicle control” value ([2]; 4 mg TA SCS, pretreatment Day 1, LPS Day 6) was “significant reduction”. The “dose of TA administered to the SCS giving a reduction in inflammation within 3 days, as share of the dose required intravitreally” value ([3]; 0.2 mg SCS vs 2 mg IVT) was 10%, the “inflammatory response (mean Hackett/McDonald ocular scores)” value ([3]; 2 mg TA SCS after LPS, vs vehicle) was “significant reduction; also recorded: significantly reduces” and the “retinal dysfunction (decrease in b wave amplitude)” value [4] was “no evidence of retinal dysfunction”. For the same compound, the “ocular fundus images (vitreal cloudiness)” value (shortened to “ocular fundus images”) ([5]; 0.2 mg TA IVT) was “only slightly improved over vehicle treated eyes”, the “ocular fundus images” value ([5]; 0.2 mg TA SCS) was “less vitreal cloudiness and similar to the pre-treatment fundus appearance; also recorded: near pre-treatment appearance” and the “ocular fundus images” value ([5]; 2.0 mg TA IVT) was “less vitreal cloudiness and similar to the pre-treatment fundus appearance; also recorded: near pre-treatment appearance”. The “ocular fundus images” value ([5]; 2.0 mg TA SCS) was “less vitreal cloudiness and similar to the pre-treatment fundus appearance; also recorded: near pre-treatment appearance”, the “retinal thickness (SD-OCT), difference between groups” value [6] was “no significant difference” and the “IOP change related to the injection procedure” value [7] was “decrease”. For the same compound, the “adverse effects related to the method of administration or 4 mg TA as assessed by histopathology” value [7] was “no adverse effects”, the “central corneal thickness (CCT)” value [7] was “slight decrease” and the “mean Cmax in plasma” value ([7]; 4 mg) was 12 ng/mL. The “effectiveness in reducing acute ocular inflammation” value ([8]; 0.2 mg TA IVT) was “less effective”, the “mean cumulative inflammatory scores compared with Groups 1, 3, 4 and 6” value ([8]; 0.2 mg TA IVT (Group 5), 24 hours after treatment (Day 1)) was “significantly higher” and the “mean cumulative inflammatory scores compared with SCS TA (Groups 3 and 4) and Group 1” value ([8]; 0.2 mg TA IVT, 48 and 72 hours after treatment) was “significantly higher mean scores”. For the same compound, the “mean cumulative inflammatory scores compared with Group 1 (BSS IVT/vehicle SCS)” value ([8]; 0.2 mg TA SCS (Group 3)) was “not significantly different”, the “mean cumulative inflammatory scores compared with Group 1 (BSS IVT/vehicle SCS)” value ([8]; 2.0 mg TA SCS (Group 4)) was “not significantly different” and the “effectiveness in reducing inflammation compared with 2.0 mg TA IVT injection” value ([8]; SCS injection of 0.2 mg and 2.0 mg of TA) was “as effective”. For the same compound, the “decrease in effective dose when the drug is delivered to the SCS” value ([8]; SCS vs IVT) was 10 fold.
